Assay [1] concerns S. aureus (AD3). Description: MIC and MBC, broth dilution, S. aureus AD3. Type of assay: cell-based. Conditions: Staphylococcus aureus; S. aureus AD3 (clinical strain). Summed up: (§1)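 Compounds, in 2.5% tween-80/2.5% DMSO, serially diluted in MH broth over 32–0.01 µg/mL with 5 × 10^5 CFU/mL inoculum, triplicates, 22–26 h at 37 °C; MIC = lowest concentration with no visible growth. MBC from plating non-turbid wells on MH agar, further 22–26 h at 37 °C.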

The test system of assay [2] is S. aureus (ATCC 29213). The experiment in a line: MIC and MBC, broth dilution, S. aureus ATCC 29213. Type of assay: cell-based. Conditions: Staphylococcus aureus, ATCC29213. The procedure, abridged: as §1
Assay [3] addresses CYP3A4 (Homo sapiens, UniProt P08684). Description: Human liver microsomal CYP3A4 enzyme inhibition. More on the design: from tissue; host or cells: human liver microsomes. Conditions: human liver microsomes, testosterone substrate. Type of assay: in vitro ADME. The method, then: The inhibitory effect of compound 9 on CYP3A4 was evaluated according to previous work. The experiments were performed in 96-well plates with a final incubation volume of 100 µL per well. A total of 20 µL of compound 9 was added to 96-well plates, with final concentrations of 0.25, 0.5, 1, 5, 10, and 50 µM. Then, 40 µL of human liver microsomes (final concentration of human liver microsomes was 0.2 mg/mL) and 20 µL of probe substrates (final concentration of testosterone was 20 μmol/L) in 0.1 M Tris (pH = 7.4) were added. After preincubation at 37 °C for 5 min, the reaction started with the addition of 20 µL of NADPH (final concentration is 1 mmol/L). Then, the plate was incubated at 37 °C for 5 min, and then 100 μL acetonitrile (with loratadine used as an internal standard) was added to terminate the reaction. After the reactions were completed, the plates were centrifuged and the supernatants were analyzed for the loratadine and probe substrates testosterone by LC-MS/MS.
On the technique in general: Microsomes from liver hold many membrane-bound enzymes, among them those of drug oxidation.

For assay [4], the system named is MRSA ATCC 43300. Description: Constant concentration time-kill curves. Type of assay: cell-based, Staphylococcus aureus. The note with it: 2× MIC, in 9 h. The protocol:
The time-kill curve experiments of compound 8 and compound 9 were performed according to a previous report in triplicate. The logarithmic phase of MRSA 43300 was diluted to about 10^6 CFU/mL with MH broth. […] All samples were shaken at 37 °C. Samples (100 μL) were taken at 0, 3, 6, 9 and 24 h from the mixtures. Each sample was diluted decuple continuously with sterile saline. Then, 20 μL of the diluted sample was plated on the sterile MH agar plate and incubated for 22–26 h at 37 °C. The total bacteria on the plates were counted as CFU/mL to calculate the bacterial colonies. The time-kill curve was constructed by scheming log10 CFU/mL of bacteria counts versus time.

The structures appear in SMILES notation. Converted amounts (≈) assume the structure as drawn.

CYP3A4, sequence (P08684 whole entry): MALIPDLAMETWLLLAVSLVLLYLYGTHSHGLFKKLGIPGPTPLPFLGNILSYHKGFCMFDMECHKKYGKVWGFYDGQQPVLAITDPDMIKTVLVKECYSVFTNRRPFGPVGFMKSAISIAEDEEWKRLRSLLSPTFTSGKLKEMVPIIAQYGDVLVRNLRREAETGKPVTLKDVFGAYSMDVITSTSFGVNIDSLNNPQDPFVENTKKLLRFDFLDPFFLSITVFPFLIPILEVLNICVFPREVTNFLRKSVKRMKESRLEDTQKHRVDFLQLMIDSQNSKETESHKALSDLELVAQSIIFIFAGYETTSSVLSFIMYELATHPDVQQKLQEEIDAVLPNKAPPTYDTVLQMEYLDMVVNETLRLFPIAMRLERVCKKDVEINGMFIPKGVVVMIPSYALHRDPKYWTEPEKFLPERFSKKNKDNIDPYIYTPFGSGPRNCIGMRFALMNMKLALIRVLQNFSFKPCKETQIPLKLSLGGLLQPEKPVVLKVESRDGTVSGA

For the molecule `C=C[C@]1(C)C[C@@H](OC(=O)CNc2ccc(F)cc2)[C@]2(C)[C@H](C)CC[C@]3(CCC(=O)[C@H]32)[C@@H](C)[C@@H]1O` [Compound 9, 22-(4-Fluoroanilineyl)-22-deoxypleuromutilin], the MBC in assay [1] and in assay [2] was 0.5 mg/L (≈ 1.06 µM) in each case. In addition, the minimal inhibitory concentration (MIC) – broadly, the lowest concentration found to suppress growth – in assay [1] was found to be 0.12 mg/L (≈ 0.254 µM); in assay [2], 0.25 mg/L (≈ 0.53 µM). In addition, the IC50 in assay [3] and in assay [3] (converted with MW) was 6.19 µM in each case. The “MRSA killed (time-kill)” value in assay [4] came out at 99.9%.
